Like-named read-outs stand apart in the source and are kept apart here.
How the values were obtained:
[1] = molecular target: T1, NCp7 (Human immunodeficiency virus type 1 group M subtype B, UniProt P04591); details: DFT calculation (Maynard et al., 1998); cited from earlier work
T1 construct: HIV-1 nucleocapsid protein (NCp7)

[2] = system: HIV-1RF; details: cited from earlier work; for EC50: CEM-SS cells, HIV-1RF, read-out: XTT assay EC50; for activity against HIV-1 in XTT-based cytoprotection assay: in words
[3] = system: CEM-SS cells; details: toxicity, CEM-SS cells; read-out: XTT assay IC50; cited from earlier work
[4] = system: HIV-1ADA; details: fresh human monocyte/macrophage cultures, cited from earlier work; for EC50: HIV-1ADA; for activity against replication of monocytotropic HIV-1ADA: in words
[5] = system: fresh human monocyte/macrophage cultures; details: toxicity; cited from earlier work
[6] = system: NCp7 protein; details: cited from earlier work; for ejection of zinc from NCp7: in words; for TSQ NCp7 Assay: unit not given
[7] = system: glutathione-S-transferase (GST); details: cited from earlier work
[8] = system: GST alpha mRNA in BNL.CL2 cells; assay: GST alpha mRNA induction, Northern blot; format: cell-based, mouse; details: for GST α induction (mRNA): 80 μM, Northern blot; for GST α induction (mRNA) / activation at 100 µM: 24 hours; for activation at 100 µM: Mus musculus, BNL CL.2, BNL.CL2 cells, 100 micromolar, read-out: increase in GST alpha mRNA levels; for inducing activity (GST, NQO1 and Ferritin H): in words
Method: (§1) BNL.CL2 cells were treated with Oltipraz, compound 121 described above, and compound 123 described above. All compounds were applied to the cells at 100 micromolar concentration for 24 hours.
(§2) Cells were exposed to compounds at a final concentration of 80 μM for 24 hours. RNA was isolated and analyzed by Northern blotting for the expression of the indicated genes. Control cells were incubated with vehicle alone (0.4% DMSO).
(§3) Northern blot: Treatment of BNL.CL2 cells with 100 μM Oltipraz, ALH-556, and ALH-562, ALH-561, ED 13.4, ED 14.6, DCF 070, ALH-490
(§4) BNL.CL2 cells (normal mouse embryonic liver cell line) were plated at ~3×10^5 cells/ml, grown for 16-24 hours, and treated with 0 μM and 100 μM Oltipraz, ALH-556 (121), and ALH-562 (123) for 24 hours. All three compounds were dissolved in DMSO and the final DMSO concentration present in all treatment conditions was 0.2%. BNL.CL2 cells were harvested by trypsinization and total RNA was isolated using the Trizol reagent (Gibco BRL) according to the manufacturer's procedures. 15 μg of RNA were run on a 1.1% agarose/6.6% formaldehyde gel and transferred overnight onto nitrocellulose membranes by capillary transfer using 20×SSC as transfer buffer. Subsequent to RNA transfer, the nitrocellulose membrane was baked at 80° C. for 2 hours. RNA was analyzed using a radiolabeled mouse ferritin H and human GST-α c-DNA. A human β-actin probe was used as an internal standard. The c-DNA probes were labeled with [α^32 P]dCTP by a random prime labeling. Hybridization of the c-DNA probes to the nitrocellulose membrane was performed at 68° C. for 60 minutes using the Quick-Hyb solution (Stratagene). Membranes were subjected to phosphoimager analysis after hybridization.

[9] = system: DT-diaphorase (NQO1) mRNA; assay: NQO1 mRNA induction, Northern blot; format: cell-based, mouse; details: 80 μM, 24 hours
Method: as §1, §2, §3, §4

[10] = system: Ferritin H mRNA; assay: Ferritin H mRNA induction, Northern blot; format: cell-based, mouse; details: 80 μM, 24 hours
Method: as §1, §2, §3, §4

[11] = system: HIV-1RF; assay: XTT cytoprotection assay, anti-HIV-1 activity (EC50) in CEM-SS cells; format: cell-based
From the text: (§5) Both the XTT and monocyte/macrophage assays were used because infection of monocyte/macrophage cultures is thought to resemble infection of the nonproliferating pool of cells in vivo, while the parameters for the CEM-SS cells (XTT assay) are thought to reflect more closely the parameters for highly proliferating cells such as bone marrow and intestinal cells. The CEM-SS cell (XTT) assay is a more sensitive indicator of toxicity and all compounds disclosed herein have been screened in this assay.
Based on these preliminary screens, it is contemplated that an aromatic or large substituent at R1 (compare entries 1 & 4, 9 & 10) and a small substituent at R2 (compare entries 1, 2, & 3; 7, 8, & 9) may be best for anti-HIV-1 activity. Sulfur heterocycles containing more than 6 atoms don't appear to be active (entries 13 & 14). […] As observed for 8 previously (Rice et al., 1997), anti-HIV-1 activity and toxicity of 53a went down when treated with 2 equivalents of GSH (entry 6).

[12] = system: CEM-SS cells; assay: XTT assay, toxicity (IC50) in CEM-SS cells; format: cell-based; details: for IC50: Homo sapiens, CEM-SS, Table 3, read-out: XTT Anti-HIV-1 Assay IC50
From the text: as §5

[13] = molecular target: T2, NCp7 (Human immunodeficiency virus type 1 group M subtype B, UniProt P12493); assay: NCp7 Trp37 fluorescence decrease assay; format: biochemical, HIV-1; details: for NCp7 Trp37 Assay, % Decrease RFU/30 min, without GSH: 50 μM
T2 construct: HIV-1 nucleocapsid protein (NCp7)

[14] = system: GST; details: rats; cited from earlier work
[15] = system: GST; details: mice; cited from earlier work
[16] = molecular target: T2, NCp7; details: 50 μM, reference compounds; cited from earlier work
[17] = system: GST alpha mRNA in BNL.CL2 cells; assay: GST alpha mRNA induction, Northern blot; format: cell-based, mouse; details: 48 and 72h post treatment, in words
[18] = Human immunodeficiency virus 1, CEM-SS, read-out: Maximum cytoprotection
[19] = Human immunodeficiency virus 1, CEM-SS, Table 3, read-out: XTT Anti-HIV-1 Assay EC50

CC(=O)NS(=O)(=O)c1ccc(NC(=O)c2ccccc2SSc2ccccc2C(=O)Nc2ccc(S(=O)(=O)NC(C)=O)cc2)cc1 [3, R'=C(O)NH-phenyl-SO2 NHC(O)CH3]
ratio of electronegativity to hardness (.chi.^2 /.eta.) [1]: 0.3098

O=S1(=O)C[C@@H](O)[C@H](O)CS1 (relative stereo) [compound 9]
EC50 [2]: 13 µM
activity against HIV-1 in XTT-based cytoprotection assay [2]: active
IC50 [3]: 135 µM
EC50 [4]: 9.1 µM
activity against replication of monocytotropic HIV-1ADA [4]: active
IC50 [5]: > 100 µM
ejection of zinc from NCp7 [6]: promoted ejection of zinc
TSQ NCp7 Assay [6]: 20
ratio of electronegativity to hardness (.chi.^2 /.eta.) [1]: 0.2260

N[C@@H](CCC(=O)N[C@@H](CS)C(=O)NCC(=O)O)C(=O)O [glutathione]
pKa of the thiol ([7]; bound to GST): ~ 6.5
pKa of the thiol ([7]; without enzyme binding): 9.0

CC1=C(C2=CCCCC2)[S+]([O-])SC1 (centres unmarked) [ED 14.6]
GST α induction (mRNA) [8]: +
NQO1 induction (mRNA) [9]: +
Ferritin H induction (mRNA) [10]: +

COc1ccc(C2=C(C)COS2=O)cc1 (centres unmarked) [compound 121, 4-Methyl-5-(4-methoxy)phenyl-1,2-oxathiol-4-en-1-yl Oxide]
activation at 100 µM [8]: 300%
inducing activity (GST, NQO1 and Ferritin H) [8]: high levels of inducing activity

CC(C)OC(=O)C1=C(c2ccccc2)[S+]([O-])SC1 (centres unmarked) [53c]
Emax at 10 µM [11, 18]: 43.3%
IC50 [12]: 15.2 µM
NCp7 Trp37 Assay, % Decrease RFU/30 min, without GSH [13]: 17.1 % Decrease RFU/30 min

NS(=O)(=O)c1ccc(NC(=O)c2ccccc2SSc2ccccc2C(=O)Nc2ccc(S(N)(=O)=O)cc2)cc1 [3, R'=C(O)NH-phenyl-SO2 NH2]
ratio of electronegativity to hardness (.chi.^2 /.eta.) [1]: 0.2935

O=S1(=O)OCC=C1c1ccccc1 [ALH-490]
GST α induction (mRNA) [8]: +
NQO1 induction (mRNA) [9]: +
Ferritin H induction (mRNA) [10]: +

COC(=O)C1=C(c2ccccc2)[S+]([O-])SC1 (centres unmarked) [53a]
anti-HIV-1 activity with GSH ([11]; 2 equivalents of GSH, in words): went down
EC50 ([11]; Human immunodeficiency virus 1, CEM-SS, + GSH, 2 equivalents, read-out: XTT Anti-HIV-1 Assay EC50 with GSH): 17.3 µM
EC50 [11, 19]: 6 µM
EC50 relative to the best dithiane (8, NSC 624151) ([11]; in words): below that of the best dithiane
cytoprotection / anti-HIV-1 activity ([11]; in words): possess anti-HIV-1 activity
toxicity with GSH ([12]; 2 equivalents of GSH, in words): went down
IC50 [12]: 18 µM
NCp7 Trp37 Assay, % Decrease RFU/30 min, with GSH ([13]; 50 μM with GSH): 16.7 % Decrease RFU/30 min
NCp7 Trp37 Assay, % Decrease RFU/30 min, without GSH [13]: 13.5 % Decrease RFU/30 min
zinc ejecting ability with GSH ([13]; GSH, in words): little effected by GSH

O=S1(=O)CC(CO)(CO)CS1 [compound 6]
EC50 [2]: 34 µM
activity against HIV-1 in XTT-based cytoprotection assay [2]: active
IC50 [3]: 200 µM
activity against replication of monocytotropic HIV-1ADA [4]: active
ejection of zinc from NCp7 [6]: promoted ejection of zinc

CC1=C(C(=O)OC(C)C)CS[S+]1[O-] (centres unmarked) [53e]
Emax at 10 µM [11, 18]: 40%
IC50 [12]: 18.4 µM
NCp7 Trp37 Assay, % Decrease RFU/30 min, without GSH [13]: 10.4 % Decrease RFU/30 min

NC(=O)c1cccc(N=O)c1 [NOBA, 3-nitrosobenzamide]
ejection of zinc from NCp7 [6]: reacted with the zinc fingers of NCp7 causing zinc ejection

COC(=O)C1=C(c2ccccc2)[S+]([O-])SC1 (centres unmarked) [DCF 070]
GST α induction (mRNA) [8]: +
NQO1 induction (mRNA) [9]: +
Ferritin H induction (mRNA) [10]: +

CC(C)(C)c1cc(O)ccc1O [t-BHQ]
GST α induction (mRNA) [8]: +
NQO1 induction (mRNA) [9]: +
Ferritin H induction (mRNA) [10]: +

CCOC(=O)C1=C(c2ccccc2)[S+]([O-])SC1 (centres unmarked) [53b]
Emax at 10 µM [11, 18]: 31.6%
IC50 [12]: 45.7 µM
NCp7 Trp37 Assay, % Decrease RFU/30 min, without GSH [13]: 6.5 % Decrease RFU/30 min

C=CCS[S+]([O-])CC=C (centres unmarked) [allicin]
elevation of GST levels [14]: elevate levels of GST
elevation of GST levels [15]: elevate levels of GST

CC(=O)OCC1(COC(C)=O)CSS(=O)(=O)C1 [compound 7]
EC50 [2]: 9.8 µM
activity against HIV-1 in XTT-based cytoprotection assay [2]: active
IC50 [3]: 30 µM
EC50 [4]: 21 µM
activity against replication of monocytotropic HIV-1ADA [4]: active
IC50 [5]: > 100 µM
ejection of zinc from NCp7 [6]: promoted ejection of zinc
TSQ NCp7 Assay [6]: 18
NCp7 Trp37 Assay, % Decrease RFU/30 min, without GSH [16]: 18 % Decrease RFU/30 min

COC(=O)C1=C(C)[S+]([O-])SC1 (centres unmarked) [53d]
Emax at 10 µM [11, 18]: 41.4%
IC50 [12]: 16.9 µM
NCp7 Trp37 Assay, % Decrease RFU/30 min, without GSH [13]: 14.3 % Decrease RFU/30 min

COC(=O)C1=C(C)S(=O)OC1 (centres unmarked) [(10) 53g]
Emax at 3.2 µM ([11]; Human immunodeficiency virus 1, CEM-SS, @ 3.2 μM, read-out: Maximum cytoprotection): 32.6%
IC50 [12]: 5.3 µM
NCp7 Trp37 Assay, % Decrease RFU/30 min, without GSH [13]: 0.2 % Decrease RFU/30 min

COC(=O)C1=C(c2ccccc2)S(=O)OC1 (centres unmarked) [53h]
Emax at 10 µM [11, 18]: 29%
IC50 [12]: 22.5 µM
NCp7 Trp37 Assay, % Decrease RFU/30 min, without GSH [13]: 0 % Decrease RFU/30 min

CC1=C(c2ccccc2)S(=O)OC1 (centres unmarked) [53f]
EC50 [11, 19]: 5.9 µM
EC50 relative to the best dithiane (8, NSC 624151) ([11]; in words): below that of the best dithiane
cytoprotection / anti-HIV-1 activity ([11]; in words): possess anti-HIV-1 activity
IC50 [12]: 16.9 µM
NCp7 Trp37 Assay, % Decrease RFU/30 min, without GSH [13]: 0 % Decrease RFU/30 min

CCOC(=O)C1=C(c2ccccc2)S(=O)OC1 (centres unmarked) [(8) 53g]
Emax at 100 µM ([11]; Human immunodeficiency virus 1, CEM-SS, @ 100 μM, read-out: Maximum cytoprotection): 12%
IC50 [12]: 213 µM
NCp7 Trp37 Assay, % Decrease RFU/30 min, without GSH [13]: 26 % Decrease RFU/30 min

CC1=C(C2=CCCCC2)S(=O)OC1 (centres unmarked) [compound 123, 4-methyl-5-cyclohexenyl-1,2-oxathiol-4-en-1-yl oxide]
GST α induction (mRNA) [8]: +
activation at 100 µM [8]: 430%
inducing activity (GST, NQO1 and Ferritin H) [8]: high levels of inducing activity
NQO1 induction (mRNA) [9]: +
Ferritin H induction (mRNA) [10]: +
time course of GST levels [17]: slight additional increases in GST levels

COC(=O)C1=C(C2=CCCCC2)[S+]([O-])SC1 (centres unmarked) [ED 13.4]
GST α induction (mRNA) [8]: +
NQO1 induction (mRNA) [9]: +
Ferritin H induction (mRNA) [10]: +
